Laboratory results as given in ChEMBL document CHEMBL3351796, “Discovery of potent and selective sirtuin 2 (SIRT2) inhibitors using a fragment-based approach” (J Med Chem, 2014).

What was measured:
[1] = biological target: T1, NAD-dependent protein deacetylase sirtuin-2 (Homo sapiens) (UniProt Q8IXJ6); experiment: Inhibition of full length human SIRT2 expressed in Escherichia coli BL21 (DE3) cells at 100 uM using fluorogenic 7-amino-4-methylcoumarin (AMC)-labeled peptide by fluorescence assay
T1 sequence (whole entry): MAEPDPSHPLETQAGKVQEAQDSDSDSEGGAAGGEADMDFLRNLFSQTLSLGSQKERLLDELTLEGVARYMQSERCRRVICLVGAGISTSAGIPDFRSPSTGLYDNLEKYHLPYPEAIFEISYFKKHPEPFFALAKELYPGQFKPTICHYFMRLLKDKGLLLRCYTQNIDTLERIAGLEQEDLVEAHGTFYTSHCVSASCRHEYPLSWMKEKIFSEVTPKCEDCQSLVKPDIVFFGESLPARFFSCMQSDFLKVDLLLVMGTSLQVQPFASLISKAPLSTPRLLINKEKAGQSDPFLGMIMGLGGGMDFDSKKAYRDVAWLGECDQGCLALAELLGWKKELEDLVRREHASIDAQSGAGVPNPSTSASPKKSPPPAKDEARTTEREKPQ

[2] = biological target: T2, NAD-dependent protein deacetylase sirtuin-3, mitochondrial (Homo sapiens) (UniProt Q9NTG7); conditions: BL21-DE3, 100 uM
T2 sequence (whole entry): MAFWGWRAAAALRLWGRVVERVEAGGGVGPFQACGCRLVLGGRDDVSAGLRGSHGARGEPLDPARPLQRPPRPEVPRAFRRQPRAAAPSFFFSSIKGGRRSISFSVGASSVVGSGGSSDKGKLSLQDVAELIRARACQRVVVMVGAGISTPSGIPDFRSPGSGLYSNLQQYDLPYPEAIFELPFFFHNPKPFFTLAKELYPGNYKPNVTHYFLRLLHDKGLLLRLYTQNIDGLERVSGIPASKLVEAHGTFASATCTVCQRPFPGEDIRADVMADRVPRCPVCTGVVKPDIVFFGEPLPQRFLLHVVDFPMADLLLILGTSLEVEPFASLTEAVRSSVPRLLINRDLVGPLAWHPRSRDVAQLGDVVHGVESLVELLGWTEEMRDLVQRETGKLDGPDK

[3] = biological target: T3, NAD-dependent protein deacetylase sirtuin-1 (Homo sapiens) (UniProt Q96EB6); experiment: Inhibition of full length human SIRT1 expressed in Escherichia coli BL21 (DE3) cells at 100 uM using fluorogenic 7-amino-4-methylcoumarin (AMC)-labeled peptide by fluorescence assay
T3 sequence (whole entry): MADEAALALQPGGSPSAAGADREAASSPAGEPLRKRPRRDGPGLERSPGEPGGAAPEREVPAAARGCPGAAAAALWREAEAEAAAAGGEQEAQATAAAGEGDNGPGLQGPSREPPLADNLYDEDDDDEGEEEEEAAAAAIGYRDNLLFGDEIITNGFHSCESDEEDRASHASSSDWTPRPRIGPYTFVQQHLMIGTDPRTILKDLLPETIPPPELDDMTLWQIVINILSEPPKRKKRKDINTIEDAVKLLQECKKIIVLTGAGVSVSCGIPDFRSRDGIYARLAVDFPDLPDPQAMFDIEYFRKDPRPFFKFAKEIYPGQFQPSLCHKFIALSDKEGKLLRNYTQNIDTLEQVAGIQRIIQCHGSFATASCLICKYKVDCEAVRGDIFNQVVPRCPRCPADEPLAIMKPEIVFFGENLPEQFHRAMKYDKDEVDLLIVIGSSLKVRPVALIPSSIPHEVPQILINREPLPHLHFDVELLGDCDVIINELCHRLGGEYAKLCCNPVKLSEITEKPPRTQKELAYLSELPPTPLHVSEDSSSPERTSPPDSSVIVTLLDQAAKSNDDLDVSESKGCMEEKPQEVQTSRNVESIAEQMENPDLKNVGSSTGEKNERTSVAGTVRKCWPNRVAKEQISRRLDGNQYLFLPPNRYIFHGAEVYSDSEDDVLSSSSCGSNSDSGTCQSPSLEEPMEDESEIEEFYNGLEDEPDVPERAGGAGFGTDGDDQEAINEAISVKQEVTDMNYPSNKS

[4] = biological target: T4, NAD-dependent protein deacetylase sirtuin-1 (Homo sapiens, UniProt Q96EB6); experiment: biochemical; assay type: cell-based, BL21-DE3
T4 sequence (Q96EB6 whole entry): T3 sequence (whole entry)
Description: Inhibition of full length human SIRT1 expressed in Escherichia coli BL21 (DE3) cells using fluorogenic 7-amino-4-methylcoumarin (AMC)-labeled peptide by fluorescence assay

[5] = biological target: T5, NAD-dependent protein deacetylase sirtuin-2 (Homo sapiens, UniProt Q8IXJ6); experiment: Inhibition of full length human SIRT2 expressed in Escherichia coli BL21 (DE3) cells using fluorogenic 7-amino-4-methylcoumarin (AMC)-labeled peptide by fluorescence assay
T5 sequence (Q8IXJ6 whole entry): T1 sequence (whole entry)

[6] = biological target: T6, NAD-dependent protein deacetylase sirtuin-3, mitochondrial (Homo sapiens, UniProt Q9NTG7); experiment: biochemical
T6 sequence (Q9NTG7 whole entry): T2 sequence (whole entry)
Description: Inhibition of catalytically active human SIRT3 (102 to 399 amino acids) expressed in Escherichia coli BL21 (DE3) cells using fluorogenic 7-amino-4-methylcoumarin (AMC)-labeled peptide by fluorescence assay

| Compound | inhibition [1] [%] | inhibition [2] [%] | inhibition [3] [%] | IC50 [4] [µM] | IC50 [5] [nM] | IC50 [6] [µM] |
| --- | --- | --- | --- | --- | --- | --- |
| NC(=O)c1ccc(Nc2cccc3ccccc23)nc1 | 41 | 38 | 19 | – | – | – |
| NC(=O)c1ccc(Sc2cccc3ccccc23)nc1 | 47 | 42 | 40 | – | – | – |
| NC(=O)c1cncc(Sc2cccc3ccccc23)c1 | – | – | – | 30.3 | 9800 | – |
| NC(=O)c1ccc(Oc2cccc3ccccc23)nc1 | 33 | 39 | < 10 | – | – | – |
| O=C(Nc1cccc2cc(S(=O)(=O)O)ccc12)c1ccccc1 | < 10 | 21 | < 10 | – | – | – |
| Nc1cccc(C(=O)Nc2ccc(S(=O)(=O)O)c3ccccc23)c1 | < 10 | < 10 | < 10 | – | – | – |
| NC(=O)c1cccc(Oc2ccc3ccccc3c2)c1 | 84 | 49 | 47 | – | – | – |
| NC(=O)c1ccc(Oc2ccc3ccccc3c2)cc1 | 16 | < 10 | < 10 | – | – | – |
| NC(=O)c1ccc(Oc2cccc3ccccc23)cc1 | 27 | 10 | < 10 | – | – | – |
| Nc1cccc(C(=O)Nc2cccc3cc(S(=O)(=O)O)ccc23)c1 | < 10 | < 10 | < 10 | – | – | – |
| Cc1ccc(C(=O)Nc2ccc(S(=O)(=O)O)c3ccccc23)cc1 | 17 | 25 | 22 | – | – | – |
| Cc1ccc(C(=O)Nc2ccc(S(=O)(=O)O)c3ccccc23)cc1N | 13 | < 10 | 11 | – | – | – |
| O=C(Nc1cccc2cccc(S(=O)(=O)O)c12)c1cccc([N+](=O)[O-])c1 | < 10 | < 10 | < 10 | – | – | – |
| NC(=O)c1cncc(Oc2cccc3ccccc23)c1 | – | – | – | 4.89 | 7570 | – |
| O=C(Nc1ccc(S(=O)(=O)O)c2ccccc12)c1cccc([N+](=O)[O-])c1 | 29 | 23 | < 10 | – | – | – |
| Cc1ccc(C(=O)Nc2cccc3cc(S(=O)(=O)O)ccc23)cc1 | 24 | 22 | 19 | – | – | – |

| Compound | inhibition [1] [%] | inhibition [2] [%] | inhibition [3] [%] | IC50 [4] [µM] | IC50 [5] [nM] | IC50 [6] [µM] |
| --- | --- | --- | --- | --- | --- | --- |
| NC(=O)c1ccc(Nc2ccc3ccccc3c2)cc1 | 15 | 47 | < 10 | – | – | – |
| NC(=O)c1cncc(Oc2ccc3c(NC(=O)c4cccc([N+](=O)[O-])c4)cccc3c2)c1 | – | – | – | 11.7 | 811 | – |
| Cc1ccc(C(=O)Nc2cccc3c(Oc4cncc(C(N)=O)c4)cccc23)cc1 | – | – | – | 18.7 | 77.4 | – |
| NC(=O)c1cncc(Nc2ccc3ccccc3c2)c1 | – | – | – | 33.6 | 4300 | – |
| NC(=O)c1cncc(Oc2cccc3c(NC(=O)c4ccncc4)cccc23)c1 | – | – | – | 15.4 | 955 | – |
| NC(=O)c1cncc(Oc2cccc3c(NC(=O)c4cccc([N+](=O)[O-])c4)cccc23)c1 | – | – | – | 64 | 434 | – |
| NC(=O)c1cncc(Oc2ccc3c(NC(=O)c4ccccc4)cccc3c2)c1 | – | – | – | 22.4 | 436 | – |
| NC(=O)c1ccc(Oc2ccc3ccccc3c2)nc1 | 61 | 44 | 31 | – | – | – |
| Cc1ccc(C(=O)Nc2ccc(S(=O)(=O)O)c3ccccc23)cc1[N+](=O)[O-] | 25 | 22 | 23 | – | – | – |
| NC(=O)c1cncc(Sc2ccc3ccccc3c2)c1 | – | – | – | 26.9 | 12100 | – |
| NC(=O)c1cccc(Nc2cccc3ccccc23)c1 | 46 | < 10 | < 10 | – | – | – |
| Cc1ccc(C(=O)Nc2cccc3cccc(S(=O)(=O)O)c23)cc1N | < 10 | 16 | 12 | – | – | – |
| Cc1ccc(C(=O)Nc2cccc3cccc(S(=O)(=O)O)c23)cc1[N+](=O)[O-] | < 10 | < 10 | 26 | – | – | – |
| NC(=O)c1cncc(Oc2cccc3c(NC(=O)c4cccnc4)cccc23)c1 | – | – | – | 70.7 | 558 | – |
| Cc1ccc(C(=O)Nc2cccc3cc(S(=O)(=O)O)ccc23)cc1[N+](=O)[O-] | 38 | < 10 | 19 | – | – | – |
| NC(=O)c1ccc(Sc2cccc3ccccc23)cc1 | 24 | < 10 | < 10 | – | – | – |

Now from value to compound:

| inhibition [1] [%] | inhibition [2] [%] | inhibition [3] [%] | IC50 [4] [µM] | IC50 [5] [nM] | IC50 [6] [µM] | Compound |
| --- | --- | --- | --- | --- | --- | --- |
| 73 | 42 | 31 | – | – | – | NC(=O)c1ccc(Sc2ccc3ccccc3c2)nc1 |
| 66 | 35 | 35 | – | – | – | NC(=O)c1cccc(Oc2cccc3ccccc23)c1 |
| 65 | < 10 | < 10 | – | – | – | NC(=O)c1cccc(Nc2ccc3ccccc3c2)c1 |
| < 10 | 10 | < 10 | – | – | – | Cc1ccc(C(=O)Nc2cccc3cccc(S(=O)(=O)O)c23)cc1 |
| – | – | – | 0.788 | 869 | 4.37 | Cc1ccc(C(=O)Nc2cccc3cc(Oc4cncc(C(N)=O)c4)ccc23)cc1[N+](=O)[O-] |
| – | – | – | 13.5 | 6290 | 2.14 | NC(=O)c1cncc(Oc2ccc3ccccc3c2)c1 |
| < 10 | < 10 | 12 | – | – | – | Nc1cccc(C(=O)Nc2cccc3cccc(S(=O)(=O)O)c23)c1 |
| 22 | < 10 | 13 | – | – | – | O=C(Nc1cccc2cc(S(=O)(=O)O)ccc12)c1cccc([N+](=O)[O-])c1 |
| 41 | < 10 | 20 | – | – | – | NC(=O)c1ccc(Sc2ccc3ccccc3c2)cc1 |
| < 10 | 15 | 17 | – | – | – | O=C(Nc1cccc2cccc(S(=O)(=O)O)c12)c1ccccc1 |
| 20 | < 10 | < 10 | – | – | – | NC(=O)c1ccc(Nc2ccc3ccccc3c2)nc1 |
| – | – | – | 100 | 978 | – | Cc1ccc(C(=O)Nc2cccc3c(Oc4cncc(C(N)=O)c4)cccc23)cc1[N+](=O)[O-] |
| – | – | – | 40.9 | 9700 | 9 | NC(=O)c1cncc(Nc2cccc3ccccc23)c1 |
| 13 | < 10 | 14 | – | – | – | Cc1ccc(C(=O)Nc2cccc3cc(S(=O)(=O)O)ccc23)cc1N |
| < 10 | 22 | < 10 | – | – | – | NC(=O)c1ccc(Nc2cccc3ccccc23)cc1 |
| – | – | – | 135 | – | – | N#C/C(=C\c1ccc(-c2cc(Cl)ccc2Cl)o1)C(=O)Nc1cccc2ncccc12 |
| – | – | – | 3.82 | 489 | – | Cc1ccc(C(=O)Nc2cccc3cc(Oc4cncc(C(N)=O)c4)ccc23)cc1 |
| 10 | 25 | < 10 | – | – | – | O=C(Nc1ccc(S(=O)(=O)O)c2ccccc12)c1ccccc1 |
